These are literature values, as cited in patent US9974685B2, “Drug delivery system and methods of treating open angle glaucoma and ocular hypertension” (Mati Therapeutics, Inc., priority 2011, dated 2018).

Data set [1] deals with rabbits. Particulars: twice-daily ocular instillation, doses up to 50 μg per eye for 52 weeks (100 μg/eye/day).
In data set [2] the test system is cynomolgus monkeys. To be noted: doses up to 50 μg/eye twice daily (100 μg/eye/day), 52 weeks, not judged to be deleterious.
Data set [3] concerns healthy volunteers. Particulars: 28 healthy volunteers; 1 drop of 50 μg/mL 4 times daily for 2 weeks; resolved spontaneously without cessation of treatment.

For `CC(C)OC(=O)CCC/C=C\C[C@@H]1[C@@H](CC[C@@H](O)CCc2ccccc2)[C@H](O)C[C@@H]1O` [Latanoprost, isopropyl-(Z)-7 [(1R,2R,3R,5S)3,5-dihydroxy-2-[(3R)-3-hydroxy-5-phenylpentyl]cyclopentyl]-5-heptenoate], the “solubility in organic solvents” value (acetone, ethanol, ethyl acetate, isopropanol, methanol and octanol) is “freely soluble”. Further, the solubility in acetonitrile entry (acetonitrile) is “very soluble”. Further, the solubility in water entry (water) is “practically insoluble”. Besides, the adverse effects entry in data set [1] was “no adverse effects”. In addition, the effects observed result in data set [2] is “a reversible change in the aspect of the palpebral fissure and a non-reversible increase in iris pigmentation”. The “ocular effects during the 4-dose regimen” value in data set [3] is “transient photophobia, cells, and mild flare were common”.
